Among the data in paper PMC8781988, “Phloroglucinol as a Potential Candidate against Trypanosoma congolense Infection: Insights from In Vivo, In Vitro, Molecular Docking and Molecular Dynamic Simulation Analyses” (Molecules, 2022) are Ki values, retold here.

As a reminder, the pKi is the Ki on a negative log10 scale, so that one unit is a factor of ten.

In the test the target is T1, T. congolense sialidase (EC 3.2.1.18).
T1 construct: native bloodstream-form enzyme, isolated and partially purified on a DEAE cellulose column
The test can be described thus: enzyme inhibition kinetics (fetuin substrate, thiobarbituric acid assay, double reciprocal plot) with partially purified enzyme. The test is classed as biochemical, Trypanosoma congolense.

pKi: −log10 of the molar value.

In the case of `Oc1cc(O)cc(O)c1` [phloroglucinol], the pKi was 6.74.
